In paper PMC11539229 (Antimicrobial Agents and Chemotherapy, 2024):
Values after ≈ are worked out from the molar mass of the structure shown.

What was measured:
in vivo = assay: in vivo; set-up: species or system C57BL/6 mice; conditions: iv, 1 mg/kg
Method: To determine the pharmacokinetic parameters, GSK138 was administered intravenously [formulation: 5% dimethyl sulfoxide (DMSO)/20% Encapsin in saline solution] as a single bolus dose in C57BL/6 mice at a target dose of 1 mg/kg. All pharmacokinetic parameters were determined in whole blood (Table 1). A moderate clearance and a moderate volume of distribution were observed.
Single-dose pharmacokinetics experiments were performed in female C57BL/6 mice, 21–29 g, obtained from Charles River Laboratories (Wilmington, MA, USA) and housed in cages in groups of three animals with water and food ad libitum. Animals were maintained for 1 week before the experiment.
The compound was dissolved in 20% Encapsin (Sigma-Aldrich), 5% DMSO (Sigma-Aldrich) in saline solution (Sigma-Aldrich) for intravenous administration, and in 1% methylcellulose (Sigma-Aldrich) in water for oral administration.
For PK analysis, 25 µL of tail blood was collected by microsampling at 0.08, 0.25, 0.5, 1.0, 2.0, 4.0, 6.0, 8.0, and 24.0 h for intravenous pharmacokinetics and 0.25, 0.5, 1.0, 2.0, 4.0, 6.0, 8.0, and 24.0 h for oral pharmacokinetics.

M. tuberculosis H37Rv = assay: Extracellular MIC, broth dilution with resazurin; type: cell-based; conditions: Mycobacterium tuberculosis, read-out: Mtb MIC
Method: MICs against the H37Rv strain were determined by broth dilution assay in Middlebrook 7H9 medium supplemented with 10% ADC. After incubating at 37°C for 6 days, 25-µL resazurin solution (one tablet in 30-mL sterile PBS) was added to each well. Following incubation at 37°C for two additional days, the lowest concentration of drug that inhibited 90% of resazurin conversion compared to internal DMSO control wells with no drug added was used to define MIC values.

Cc1csc([C@](C)(O)c2nnc(Nc3cc(C)n(Cc4csc(C)n4)n3)s2)n1 [GSK138]
chromatographic logD (physchem; pH 7.4, Chrom logD): 3.39 | chromatographic logD (physchem; pH 7.4, chrom logD): 3.38 | Vd (in vivo; female, C57BL/6, mouse): 2.6 ± 0.3 L/kg | clearance (in vivo; female, C57BL/6, mouse): 77.6 ± 16.8 mL/min/kg | clearance (in vivo; mouse): moderate | volume of distribution (in vivo; mouse): moderate | MIC (M. tuberculosis H37Rv): 1 µM (≈ 0.434 µg/mL)
